# From patent US20210346392A1, “PHARMACEUTICAL COMPOSITION FOR ORAL ADMINISTRATION” (ASTELLAS PHARMA INC., priority 2018, published 2021)
# Where two headings read alike, the source gives them in different places.
# How the values were obtained:
# [1] = Storage stability: total amount of related substances by HPLC (Experimental Example 1); assay type: physicochemical; settings: stored at 40° C., 75% RH for 1 month, glass bottle, covered
# Text: The storage stability as used herein can be evaluated by measuring the change in the amount of related substances derived from compound A when the pharmaceutical composition for oral administration is stored under certain storage conditions. For example, after the pharmaceutical composition for oral administration is stored under certain conditions, the total amount of related substances of compound A contained in the pharmaceutical composition for oral administration, or a specific related substance of compound A is measured. […] The percentage (%) of the total peak area of related substances with respect to the sum of all peak areas including the peak area of compound A are calculated, and is compared with the value before storage to calculate the amount of change (the amount of increase)(%). Alternatively, as shown in Experimental Example 3 described below, the percentage (%) of the peak area of related substance A with respect to the sum of all peak areas obtained in the same manner is calculated, and it is also possible to evaluate the storage stability by the change over time of related substance A.
# The physical mixtures obtained in Example 1 and Comparative Example 1 were placed in glass bottles, covered, and stored at 40° C., 75% RH for 1 month, and the total amount of related substances before and after storage was measured by the method described below. […]
# [2] = Solubility of compound A in Japanese Pharmacopoeia dissolution test fluids; assay type: physicochemical; settings: for solubility: Seventeenth Edition
# Text: When compound A was formulated, the solubility of compound A was confirmed based on a Dissolution Test of the Japanese Pharmacopoeia, Seventeenth Edition, and there was a large difference between an acidic pH range and a neutral pH range.
compound,measurement,setting,value
"Cc1nc(CN2CCS(=O)(=O)CC2)c2cc(C3CCC(C)(C)CC3)sc2n1 [Compound A, 6-(4,4-Dimethylcyclohexyl)-4-[(1,1-dioxo-1λ^6-thiomorpholin-4-yl)methyl]-2-methylthieno[2,3-d]pyrimidine]",Increased amount of total related substances (%) (n = 2),[1],0.00%
same,Increased amount of total related substances (%) (n = 2),[1]; listed as compound A,did not increase
same,difference of solubility between acidic and neutral pH range,[2]; first fluid vs second fluid,approximately 30 times
same,solubility,"[2]; pH 1.2, simulated gastric fluid, first fluid for a Dissolution Test of the Japanese Pharmacopoeia, read-out: solubility in an acidic pH range",~41 µg/mL
same,solubility,"[2]; pH 6.8, aqueous buffer, second fluid for a Dissolution Test of the Japanese Pharmacopoeia, read-out: solubility at a neutral pH range",~1.2 µg/mL
